The results in this text go back to patent publication US4067982A, “Aryl-substituted piperazinyl-alkylamino-uracils, -uracil ethers and -uracil thioethers as therapeutics” (priority 1976, dated 1978).

For data set [1], the system named is blood pressure of the narcotized rat. Briefly: Lowering of the blood pressure, narcotized rat. On the set-up: unit not given here. It counts as in vivo. The settings on record: 30% lowering.
In data set [2] the test system is blood pressure increasing effect of adrenaline. Kind of data set: Inhibition of the pressor effect of adrenaline, despinalized rat. The format is in vivo. Particulars: iv, 0.001 mg/kg i.v. adrenaline, read-out: 50% inhibition of the press. effect after i.v. administration of adrenaline with.
Data set [3] relates to blood pressure increasing effect of noradrenaline. Briefly: Inhibition of the pressor effect of noradrenaline, despinalized rat. It counts as in vivo. Particulars: iv, 0.001 mg/kg i.v. noradrenaline, read-out: 50% inhibition of the press. effect after i.v. administration of noradrenaline with.
Data set [4] has as its system mouse. Kind of data set: PD50, rotating rod, mouse. The format is in vivo. Particulars: ip, read-out: PD50. The text has this:
The centrally inhibiting effect of the piperazinyl uracils of the invention in the mouse are apparent from Table IV. […] The selective action of the compounds of the invention on the central blood pressure mechanism can be used advantageously in human therapy in the treatment of hypertonic diseases.
a = Dose, at which an average of 50% of the mice fall from a rotating rod.

For data set [5], the system named is mouse. Briefly: SD50, sedation symptoms, mouse. It counts as in vivo.
Source text: b = Dose, at which at an average 50% of the mice show the following symptoms: inhibition of the spontaneous motility, sadation, muscle relaxation, loss of gripping and holding ability on a horizontal wire net.
In data set [6] the test system is mouse. Kind of data set: Inhibition of the motility in the tread wheel, mouse. It counts as in vivo. Particulars: for inhibition in vivo at 25 mg/kg: ip, 3 h, read-out: % Inhibition of the motility in the tread wheel by 25 mg/kg i.p.
Data set [7] has as its system mouse. Kind of data set: Prolongation of sleep induced by hexobarbital, mouse. The format is in vivo. The settings on record: ip, read-out: % prolongation of sleep induced by hexobarbital by 15 mg/kg i.p.
Procedure: d = Percent prolongation of the duration of sleep of mice, which were administered 75 mg/kg hexobarbital, compared with the sleep duration of controls.
A further data set is described as follows: in vivo. Particulars: mouse.
The test system of data set [8] is histamine spasm of the isolated small intestine of the guinea pig. Kind of data set: Antihistamine effect, histamine spasm of isolated small intestine.
Data set [9] relates to blood pressure of the narcotized cat. Kind of data set: Lowering of the blood pressure, narcotized cat. It counts as in vivo. The settings on record: Felis catus, iv; for ED30: 30% lowering; for ED50: 50% lowering.
Data set [10] deals with carotid sinus relaxation reflex of the narcotized cat. Kind of data set: Inhibition of the carotid sinus reflex, narcotized cat. Particulars: Felis catus, iv; for ED30: 30% inhibition; for ED50: 50% inhibition. The format is in vivo.
The subject of data set [11] is mouse. Kind of data set: Analgesic effect, thermal stimulation of the tail of the mouse. The format is in vivo. The settings on record: oral, 25% retardation, read-out: Retardation of the defense reaction upon thermal stimulation of the tail of the mouse by 25%. The text has this:
The analgesic effect was thereby determined as the delay in the reaction upon thermal stimulation of the tail of the mouse.

[12] abbreviates: mouse, i.p., dose at which an average of 50% of the mice fall from a rotating rod.
Where [13] appears, read: mouse, oral, dose at which 50% show inhibition of spontaneous motility, sedation, muscle relaxation, loss of gripping, read-out: SD50 (the source's name).
The mark [14] stands for this setting: mouse, 25 mg/kg i.p., 5 mg/kg d-amphetamine-sulfate, 180 minutes.
Setting [15] is: mouse, 15 mg/kg i.p., 75 mg/kg hexobarbital, vs controls.
[16] abbreviates: Mus musculus, po, read-out: SD50.

The structures appear in SMILES notation. Like-named read-outs stand apart in the source and are kept apart here.

On to `COc1ccccc1N1CCN(CCCNc2c(C)c(=O)n(C)c(=O)n2C)CC1` [Example 14, 1,3,5-Trimethyl-4-(γ-[4-(o-methoxyphenyl)-piperazinyl-(1)]-propylamino)-uracil], for which, in data set [1], the “lowering of the blood pressure by 30% by” value is listed as 0.13. For the same compound, the ED50 in data set [2] was determined as 0.045 mg/kg; in data set [3], 1.2 mg/kg; in the data set with mouse [4] (setting [12]) it was 12 mg/kg; in the data set with mouse [5] (setting [13]) it was 90 mg/kg. Further, the inhibition in vivo at 25 mg/kg in the data set with mouse [6] (setting [14]) stood at 21%. Further, the change in vivo at 15 mg/kg in the data set with mouse [7] (setting [15]) was determined as 152%. Further, the LD50 in the data set “in vivo” came to 140 mg/kg.
Consider `Cn1c(NCCCN2CCN(c3ccc(Cl)cc3)CC2)cc(=O)n(C)c1=O` [Example 13, 1,3-Dimethyl-4-(γ-[4-(p-chlorophenyl)-piperazinyl-(1)]-propylamino)-uracil], for which the “lowering of the blood pressure by 30% by” value in data set [1] is listed as more than 3.4. The ED50 in [2] is more than 2.5 mg/kg. Further, the “50% inhibition of the histamine spasm of the isolated small intestine of the guinea pig” value (“50% inhibition” below) in [8] amounted to 1e-08 g/mL. Also, the LD50 in “in vivo” turned out to be 70 mg/kg.
With `COc1ccccc1N1CCN(CCCNc2c(N)c(=O)n(C)c(=O)n2C)CC1` [Example 20, 1,3-Dimethyl-4-(γ-[4-(o-methoxyphenyl)-piperazinyl-(1)]-propylamino)-5-amino-uracil], the values for the ED30 in [9] and in [10] were 0.05 mg/kg and 0.06 mg/kg, respectively. Further, the ED50 in data set [9] stood at 0.15 mg/kg; in data set [10], 0.15 mg/kg; in [2] it was 0.045 mg/kg; in data set [3], 1.6 mg/kg; in the data set on mouse [4] (setting [12]), 34 mg/kg; with mouse [5] (setting [13]) it was 80 mg/kg. In [1], the “lowering of the blood pressure by 30% by” value turned out to be 0.11. The inhibition in vivo at 25 mg/kg with mouse [6] (setting [14]) stood at 42%. Further, the change in vivo at 15 mg/kg with mouse [7] (setting [15]) amounted to 62%. In addition, the LD50 in “in vivo” was 500 mg/kg.
`Cc1ccccc1N1CCN(CCCNc2c(N=O)c(=O)n(C)c(=O)n2C)CC1` [Example 61, 1,3-Dimethyl-4-([4-(o-tolyl)-piperazinyl-(1)]-propyl-amino)-5-nitroso-uraci]: in [1], the “lowering of the blood pressure by 30% by” value came out at 0.5. Further, the ED50 was 0.39 mg/kg in [2] and 3.7 mg/kg in data set [3]. Further, the LD50 in “in vivo” came to 600 mg/kg.
`COc1ccccc1N1CCN(CCCNc2c(Br)c(=O)n(C)c(=O)n2C)CC1` [Example 18, 1,3-Dimethyl-4-(γ-[4-(o-methoxyphenyl)-piperazinyl-(1)]-propylamino)-5-bromo-uracil-dihydrobomide]: the ED30 in [9] was determined as 0.15 mg/kg; in data set [10] it was 0.13 mg/kg. Moreover, the ED50 was more than 0.5 mg/kg in [9] and 1.1 mg/kg in data set [10].
For `COc1ccccc1N1CCN(CCCOc2cc(=O)n(C)c(=O)n2C)CC1` [Example 9, 1,3-Dimethyl-4-(γ-[4-(o-methoxyphenyl)-piperazinyl-(1)]-propyloxy)-uracil], the ED30 in [9] stood at 0.03 mg/kg; in data set [10] it was 0.17 mg/kg. For the same compound, the ED50 worked out at 0.14 mg/kg in data set [9]; 0.26 mg/kg in data set [10]; 0.15 mg/kg in data set [2]; 12 mg/kg in the data set on mouse [4] (setting [12]); 30 mg/kg in the data set with mouse [5] (setting [13]). For the same compound, the “lowering of the blood pressure by 30% by” value in data set [1] is listed as more than 3.4. The inhibition in vivo at 25 mg/kg in the data set on mouse [6] (setting [14]) came out at 79%. In the data set with mouse [7] (setting [15]), the change in vivo at 15 mg/kg was 140%. Further, the ED25 in the data set with mouse [11] came to 10 mg/kg. Further, the 50% lethal dose (LD50) in the data set “in vivo” was found to be 400 mg/kg.
With `CNC1=Nc2ccc(Cl)cc2C(c2ccccc2)=[N+]([O-])C1` [Chlordiazepoxyde, reference compound], the ED50 in the data set with mouse [4] (Mus musculus) came to 38 mg/kg; in the data set with mouse [5] (setting [16]), 8 mg/kg. The inhibition in vivo at 25 mg/kg in the data set on mouse [6] (Mus musculus) came out at 30%. Moreover, the change in vivo at 15 mg/kg in the data set on mouse [7] (Mus musculus) stood at 324%.
As for `Cn1c(NCCCN2CCN(c3ccccc3)CC2)cc(=O)n(C)c1=O` [Example 11, 1,3-Dimethyl-4-(γ-[4-phenyl-piperazinyl-(1)]-propylamino)-uracil], the “lowering of the blood pressure by 30% by” value in data set [1] was 0.48. The ED50 is 1 mg/kg in data set [2], more than 2.5 mg/kg in data set [3], 11 mg/kg in the data set on mouse [4] (setting [12]) and 70 mg/kg in the data set on mouse [5] (setting [13]). Moreover, the “% Inhibition of the motility in the tread wheel by 12 mg/kg i.p.” value with mouse [6] (mouse, 12 mg/kg i.p., 5 mg/kg d-amphetamine-sulfate, 180 minutes) came to 22%. In the data set with mouse [7] (setting [15]), the change in vivo at 15 mg/kg amounted to 130%. This compound came in with an LD50 in the data set “in vivo” of 120 mg/kg.
As to `COc1ccc(OC)c(N2CCN(CCCNc3cc(=O)n(C)c(=O)n3C)CC2)c1` [Example 3, 1,3-Dimethyl-4-(γ-[4-(2,5-dimethoxyphenyl)-piperazinyl-(1)]-propylamino)-uracil], in [1], the “lowering of the blood pressure by 30% by” value turned out to be 1.4. In addition, the ED50 in data set [2] amounted to 2.1 mg/kg. Further, in the data set on mouse [11], the ED25 amounted to 7 mg/kg. In addition, in the data set “in vivo”, the LD50 came to 430 mg/kg.
With `CCOc1ccccc1N1CCN(CCCNc2cc(=O)n(C)c(=O)n2C)CC1` [Example 5, 1,3-Dimethyl-4-(γ[4-(o-ethoxyphenyl)-piperazinyl-(1)]-propylamino)-uracil], the “lowering of the blood pressure by 30% by” value in [1] was 0.36. The ED50 in data set [2] worked out at 0.24 mg/kg; in the data set on mouse [4] (setting [12]) it was 26 mg/kg; in the data set with mouse [5] (setting [13]) it was 98 mg/kg. Also, the inhibition in vivo at 25 mg/kg in the data set with mouse [6] (setting [14]) stood at 46%. Also, the change in vivo at 15 mg/kg in the data set with mouse [7] (setting [15]) is 126%. In addition, in the data set with mouse [11], the ED25 was found to be 9 mg/kg. In “in vivo”, this compound came in with an LD50 of 250 mg/kg.
For `CCCCc1c(NCCCN2CCN(c3ccccc3OC)CC2)n(C)c(=O)n(C)c1=O` [Example 15, 1,3-Dimethyl-4-(γ-[4-(o-methoxyphenyl)-piperazinyl-(1)]-propylamino)-5-n-butyl-uracil], the “lowering of the blood pressure by 30% by” value in [1] was 0.36. Besides, the ED50 in data set [2] came to 0.028 mg/kg; in data set [3], 2.8 mg/kg. The compound also returned an LD50 in the data set “in vivo” of 130 mg/kg.
For the compound `COc1cccc(N2CCN(CCCNc3cc(=O)n(C)c(=O)n3C)CC2)c1` [Example 7, 1,3-Dimethyl-4-(γ-[4-(m-methoxyphenyl)-piperazinyl-(1)]-propylamino)-uracil], in data set [8], the “50% inhibition” value is 2e-08 g/mL.
With `Cc1ccc(N2CCN(CCCNc3cc(=O)n(C)c(=O)n3C)CC2)cc1` [Example 1, 1,3-Dimethyl-4-(γ-[4-(p-tolyl)-piperazinyl-(1) ]-propylamino)-uracil], the “lowering of the blood pressure by 30% by” value in data set [1] is given as 2.9. Also, the figures for the ED50 (in data set [2]; in the data set on mouse [4] (setting [12]); in the data set on mouse [5] (setting [13])) were 1.45 mg/kg, 28 mg/kg and 40 mg/kg, respectively. Moreover, in the data set with mouse [6] (setting [14]), the inhibition in vivo at 25 mg/kg stood at 36%. In addition, the change in vivo at 15 mg/kg in the data set on mouse [7] (setting [15]) turned out to be 110%. For the same compound, in the data set with mouse [11], the ED25 amounted to 5 mg/kg. The same compound returned an LD50 in the data set “in vivo” of 200 mg/kg.
Take `Cc1c(N(C)C)c(=O)n(-c2ccccc2)n1C` [Aminophenazone, reference compound]: the ED25 with mouse [11] was 140 mg/kg.
`COc1ccccc1N1CCN(CCCNc2c([N+](=O)[O-])c(=O)n(C)c(=O)n2C)CC1` [Example 16, 1,3-dimethyl-4-(γ-[4-(o-methoxyphenyl)-piperazinyl-(1)]-propylamino)-5-nitro-uracil]: the ED30 worked out at 0.21 mg/kg in data set [9] and 0.6 mg/kg in [10]. The ED50 was 1 mg/kg in [9], 2 mg/kg in data set [10] and 0.17 mg/kg in data set [2]. For the same compound, the “lowering of the blood pressure by 30% by” value in data set [1] came out at 1.6. The ED25 with mouse [11] stood at 10 mg/kg. The compound also showed an LD50 in “in vivo” of 600 mg/kg.
With `CN1CCC(OC(c2ccccc2)c2ccccc2)CC1` [Piprinhydrinate, reference compound], the “50% inhibition” value in [8] worked out at 1.5e-08 g/mL.
Take `COc1ccccc1N1CCN(C(C)CNc2cc(=O)n(C)c(=O)n2C)CC1` (stereo not drawn) [Example 17, 1,3-Dimethyl-4-(β-[4-(o-methoxyphenyl)-piperazinyl-(1)]-propylamino)-uracil]: in data set [1], the “lowering of the blood pressure by 30% by” value came to 3.0. The ED50 in data set [2] came to 0.16 mg/kg; in [3], 2.3 mg/kg. In “in vivo”, this compound yielded an LD50 of 220 mg/kg.
Consider `CCCC(C)(COC(N)=O)COC(N)=O` [Meprobamate, reference compound], for which the figures for the ED50 in the data set on mouse [4] (Mus musculus) and in the data set with mouse [5] (setting [16]) were 95 mg/kg and 300 mg/kg, respectively. In addition, the inhibition in vivo at 25 mg/kg in the data set with mouse [6] (Mus musculus) worked out at 28%. Also, the change in vivo at 15 mg/kg in the data set on mouse [7] (Mus musculus) stood at 18%.

Broadly, the LD50 is the dose expected to kill half of the subjects tested.
